The values below come from EP0973516B1, “USE OF HALO AND/OR NITRO-SUBSTITUTED FLAVONOIDS AS ANXYOLITICS” (University of Strathclyde, priority 1997, dated 1998).

The target of this experiment is Benzodiazepine receptors (BDZ-Rs). The experiment in a line: Inhibition of 3H-flunitrazepam (3H-FNZ) binding to washed rat cerebral cortical membranes. How it is done: Adult male Wistar rats weighing 250g were used for biochemical experiments.
Membrane preparations were carried out according to Medina et al. (1990). Briefly, brains were rapidly dissected out on ice and the different structures were homogenized in 10 volumes of 0.32 M sucrose and centrifuged at 900 x g for 10 min. The resulting supernatant was centrifuged at 100,000 x g for 30 min and the pellet washed twice in 25mM Tris HCl buffer pH 7.4 at 100,000 x g for 30 min,and stored at-20°C until used.
Binding affinities to BDZ-Rs were determined by the ability of the compounds to inhibit Hoffman-La Roche ^3H-flunitrazepam (^3H-FNZ) binding to extensively washed rat cerebal cortical membranes following the method as described by Levi de Stein, M. et al., Mol. Brain Res (1989),5, pp 9-15.
In brief, for each assay, triplicate samples of the membranes, containing 0.2 to 0.4 mg protein were suspended in a final volume of 1 ml of 0.25 mM Tris-HCl buffer, pH 7.3.
The incubation was carried out at 4°C for 60 min with 0.5 nM ^3H-FNZ. To study the binding saturation, a range of 0.3 to 10 nM ^3H-FNZ was used. Non-specific binding was determined in parallel incubations in the presence of 3µM FNZ, and represented 5-15% of total. The assays were terminated by filtration under vacuum through Whatman GF/A glass-fiber filters, and three washes with 3mL each of incubation medium. Filters were dried and counted after the addition of 5 mL of 2,5-diphenyloxazole/xylene as scintillation fluid.
The competition curves were analyzed using Graph-Pad Prism software.
Figures 1-5 show representative displacement curves of [^3H] flunitrazepam (0.5 nM) binding by different flavones to washed crude synaptosomal membranes from rat cerebral cortex.

Setting [1] is: Rat Cerebral Cortex membranes, 0.5 nM 3H-FNZ, means of 3-5 independent determinations, read-out: Ki^b.
[2] abbreviates: mean ± SEM from displacement curves of [3H] flunitrazepam binding to rat synaptosomal membranes, read-out: Ki.
Where [3] appears, read: single representative displacement curve (Figures 1-5), [3H] flunitrazepam 0.5 nM, washed crude synaptosomal membranes from rat cerebral cortex, read-out: Ki.

Read-outs that look alike come from different tables or passages of the source.

As for `O=c1cc(-c2cccc(Br)c2)oc2ccc([N+](=O)[O-])cc12` [Compound A5, 6-nitro-3'-bromoflavone], the Ki (as a rule, a dissociation constant, usually derived from enzyme kinetics or from competition with a known ligand) runs as follows: under setting [1], 25 nM; under setting [2], 25.2 ± 2.46 nM; under setting [3], 21.8 nM.
On to `O=c1cc(-c2ccccc2)oc2ccc([N+](=O)[O-])cc12` [Compound A1, 6-nitroflavone], for which the Ki under setting [1] was 275 nM, the inhibition constant Ki under setting [2] was determined as 275 ± 41.1 nM and the Ki under setting [3] worked out at 315 nM.
As to `O=c1cc(-c2cccc(Br)c2)oc2ccccc12` [Compound A3, 3'-bromoflavone], the Ki by setting is: under setting [1], 413 nM; under setting [2], 414 ± 46 nM; under setting [3], 427 nM.
On to `O=c1cc(-c2ccccc2)oc2ccccc12` [Flavone 6, Flavone, reference compound], for which the inhibitory constant (Ki) under setting [1] was 1000 nM.
As to `O=c1cc(-c2cccc(Cl)c2)oc2ccccc12` [Compound A2, 3'-chloroflavone], the Ki under setting [1] was 614 nM, the inhibition constant (Ki) under setting [2] was determined as 614 ± 32.7 nM and the Ki under setting [3] came to 665 nM.
`O=c1cc(-c2cccc(Br)c2)oc2ccc(Br)cc12` [Compound A4, 6,3'-dibromoflavone]: the Ki by setting is: under setting [1], 19 nM; under setting [2], 18.6 ± 2.18 nM; under setting [3], 22.7 nM.
